From patent publication US9133207B2, “Tetrandrine derivatives with substituted 5-carbon, preparation method and use thereof” (Hangzhou Bensheng Pharmaceutical Co., Ltd., priority 2011, dated 2015)
Converted amounts (≈) assume the structure as drawn.

Key:
[1] = test system: human non-small cell lung cancer cell line A549 transplanted tumor; assay: Experiment 8-1: transplanted tumor of human lung cancer in nude mice; format: in vivo, BALB/c nude mice
Protocol: Cell lines: human non-small cell lung cancer cell line A549, from China Center for Type Culture Collection (CCTCC);
(§1) BS-TE-403 and BS-TE-333 (the present invention), and tetrandrine TTD from Jiangxi Jinfurong Pharmaceutical Co., Ltd. All compounds are administered at the dosage of 50 mg/kg weight each time.
Under sterile conditions, the above tumor cells in the logarithmic growth phase are collected and injected by subcutaneous injection in an amount of 5×10^6/0.2 ml/nude mice (cell viability>95%) into the right subaxillary of the nude mice, thus establishing a transplated tumor model of human non-small cell lung cancer in nude mice.
(§2) The experiments are divided into 4 groups: negative control group (solvent group), positive control group (lead compound TTD group), BS-TE-403 group and BS-TE-333 group.
(§3) The administrations are successive for 10 days.

[2] = test system: PC-3 (prostate cancer); assay: Solid tumor cell growth inhibition, MTT, 72 h (Example 7); format: cell-based, human; conditions: Homo sapiens; 72 h, MTT, PC-3
How it was run: (§4)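 Each line is plated at 4000 cells per well in high-glucose DMEM supplemented with 10% FBS. After 24 h settling, derivatives at several concentrations are mixed in and cultured 72 h; MTT then gives viable cells, with untreated wells set to 100%.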

[3] = test system: PANC-1 (pancreatic cancer); assay: as above; format: cell-based, human; conditions: Homo sapiens; 72 h, MTT, PANC-1
How it was run: as §4

[4] = test system: Hep-2 (laryngeal carcinoma); assay: as above; format: cell-based, human; conditions: Homo sapiens; 72 h, MTT, Hep 2
How it was run: as §4

[5] = test system: MG63 (osteosarcoma); assay: as above; format: cell-based, human; conditions: Homo sapiens; 72 h, MTT, MG-63
How it was run: as §4

[6] = test system: CaES-17 (esophageal cancer cell); assay: as above; format: cell-based, human; conditions: Homo sapiens, CaEs17; 72 h, MTT, CAES-17
How it was run: as §4

[7] = test system: H9 (acute lymphoblastic leukemia, ALL); assay: Leukemia cell growth inhibition, MTT, 72 h (Example 5); format: cell-based, human; conditions: Homo sapiens; 72 h, MTT
How it was run: (§5)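 Seed 6000 leukemia cells per well in 1640 medium containing 10% FBS. Add test compounds at different concentrations, mix, incubate 72 hours at 37° C in 5% CO2. Determine viable cells by MTT.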

[8] = test system: Kasumi-1 (acute myeloid leukemia M2 type, AML-M2); assay: as above; format: cell-based, human; conditions: Homo sapiens, Kasumi 1
How it was run: as §5

[9] = test system: K562/adr (drug-resistant, chronic myeloid leukemia, CML); assay: as above; format: cell-based, human; conditions: Homo sapiens, K562/Adr; 72 h, MTT
How it was run: as §5

[10] = test system: Jurkat (acute lymphoblastic leukemia, ALL); assay: as above; format: cell-based, human; conditions: Homo sapiens, Jurkat; 72 h, MTT
How it was run: as §5

[11] = test system: NB4 (acute promyelocytic leukemia, AML); assay: as above; format: cell-based, human; conditions: Homo sapiens; 72 h, MTT
How it was run: as §5

[12] = test system: RPMI8226 (multiple myeloma); assay: Multiple myeloma cell growth inhibition, MTT, 72 h (Example 6); format: cell-based, human; conditions: Homo sapiens, RPMI-8226; 72 h, MTT, RPMI8226
How it was run: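 Viability was read by MTT after 72 h of compound exposure at 37 °C, 5% CO2. Each well held 6000 RPMI8226 cells in 1640 medium containing 10% fetal bovine serum, with derivatives added at various concentrations.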

[13] = Experiment 8-1: body weight of nude mice, preliminary toxicity; format: in vivo, BALB/c nude mice
Protocol: as §1, §2, §3

[14] = test system: RKO (human colon adenocarcinoma cell); assay: Solid tumor cell growth inhibition, MTT, 72 h (Example 7); format: cell-based; conditions: Homo sapiens; 72 h, MTT, RKO
How it was run: as §4

[15] = test system: Huh7 (human liver cancer cell); assay: as above; format: cell-based; conditions: Homo sapiens; 72 h, MTT, Huh-7
How it was run: as §4

[16] = test system: CNE (nasopharyngeal carcinoma cell); assay: as above; format: cell-based; conditions: Homo sapiens
How it was run: as §4

[17] = test system: A549 (human lung cancer); assay: as above; format: cell-based; conditions: Homo sapiens; 72 h, MTT, A549
How it was run: as §4

[18] = test system: U87 MG (malignant glioma cell); assay: as above; format: cell-based; conditions: Homo sapiens, U-87 MG
How it was run: as §4

[19] = test system: Becap37 (human breast cancer cell); assay: as above; format: cell-based; conditions: Homo sapiens; 72 h, MTT, Becap-37
How it was run: as §4

[20] = test system: MGC 803 (human gastric cancer cell); assay: as above; format: cell-based; conditions: Homo sapiens
How it was run: as §4

[21] = test system: Hela (human cervical cancer cell); assay: as above; format: cell-based; conditions: Homo sapiens; 72 h, MTT, Hela
How it was run: as §4

[22] = test system: SK-OV-3 (ovarian cancer cell); assay: as above; format: cell-based; conditions: Homo sapiens
How it was run: as §4

With COc1ccc2cc1Oc1ccc(cc1)C[C@H]1c3cc(c(OC)cc3CCN1C)Oc1c(OC)c(OC)c(CN3CCN(C(C)C)CC3)c3c1[C@H](C2)N(C)CC3 [BS-TE-333] the “effect on transplanted tumor of human lung cancer in nude mice (FIG. 2)” value ([1]; 50 mg/kg) was “exhibit inhibiting effects”, the “Mass of tumor” value ([1]; 50 mg/kg intragastric, 3 times a day, 10 days, Day 27, M±SD) was 639.25 ± 285.20 mg and the “Tumor Inhibition rate (%)” value ([1]; 50 mg/kg intragastric, 3 times a day, 10 days, Day 27, control = zero) was 31.15%. It also gave an IC50 [2] of 1.85 µg/mL (≈ 2.42 µM), an IC90 [2] of 2.9 µg/mL (≈ 3.8 µM) and an IC50 [3] of 1.69 µg/mL (≈ 2.21 µM). For the same molecule, the IC90 [3] was 9.93 µg/mL (≈ 13 µM), the IC50 [4] was 1.72 µg/mL (≈ 2.25 µM) and the IC90 [4] was 9.69 µg/mL (≈ 12.7 µM). For the same molecule, the IC50 [5] was 0.7 µg/mL (≈ 0.917 µM), the IC90 [5] was 1.3 µg/mL (≈ 1.7 µM) and the IC50 [6] was 2.35 µg/mL (≈ 3.08 µM). For the same molecule, the IC90 [6] was 17.1 µg/mL (≈ 22.4 µM), the IC50 [7] was 1.14 µg/mL (≈ 1.49 µM) and the IC90 [7] was 1.84 µg/mL (≈ 2.41 µM). It also gave an IC50 [8] of 0.77 µg/mL (≈ 1.01 µM), an IC90 [8] of 3.29 µg/mL (≈ 4.31 µM) and an IC50 [9] of 0.43 µg/mL (≈ 0.564 µM). It also gave an IC90 [9] of 1.91 µg/mL (≈ 2.5 µM), an IC50 [10] of 0.81 µg/mL (≈ 1.06 µM) and an IC90 [10] of 4.18 µg/mL (≈ 5.48 µM). It also gave an IC50 [11] of 0.48 µg/mL (≈ 0.629 µM), an IC90 [11] of 1 µg/mL (≈ 1.31 µM) and an IC50 [12] of 0.06 µg/mL (≈ 0.0786 µM). For the same molecule, the IC90 [12] was 2.34 µg/mL (≈ 3.07 µM), the “toxic or side effect under such a dosage” value ([13]; 50 mg/kg) was “has caused some toxic and side effect” and the “weight loss as compared with the weight in the control group (FIG. 1)” value ([13]; 50 mg/kg) was “relatively obvious”. The “Weight (g) Final” value ([13]; 50 mg/kg intragastric, 3 times a day, 10 days, final body weight, M±SD) was 16.95 ± 2.30 g, the “Weight (g) Initial” value ([13]; nude mice body weight before administration, M±SD) was 21.3 ± 0.24 g and the IC50 [14] was 0.54 µg/mL (≈ 0.708 µM). It also gave an IC90 [14] of 1.74 µg/mL (≈ 2.28 µM), an IC50 [15] of 1.64 µg/mL (≈ 2.15 µM) and an IC90 [15] of 2.45 µg/mL (≈ 3.21 µM). It also gave an IC50 [16] of 2.6 µg/mL (≈ 3.41 µM), an IC90 [16] of 5.6 µg/mL (≈ 7.34 µM) and an IC50 [17] of 1.5 µg/mL (≈ 1.97 µM). For the same molecule, the IC90 [17] was 11 µg/mL (≈ 14.4 µM), the IC50 [18] was 0.5 µg/mL (≈ 0.655 µM) and the IC90 [18] was 1.51 µg/mL (≈ 1.98 µM). For the same molecule, the IC50 [19] was 1 µg/mL (≈ 1.31 µM), the IC90 [19] was 4.5 µg/mL (≈ 5.9 µM) and the IC50 [20] was 0.84 µg/mL (≈ 1.1 µM). It also gave an IC90 [20] of 5.3 µg/mL (≈ 6.95 µM), an IC50 [21] of 1.69 µg/mL (≈ 2.21 µM) and an IC90 [21] of 5 µg/mL (≈ 6.55 µM). The IC50 [22] was 3.04 µg/mL (≈ 3.98 µM) and the IC90 [22] was over 16 µg/mL.
